# Results from patent EP4755888A1 (ILAb Co., Ltd., priority 2023, dated 2025).
# pIC50: −log10 of the molar value.
# Target: PD-1/PD-L1 (Homo sapiens, UniProt Q9NZQ7)
# Test: TR-FRET PD-1/PD-L1 binding inhibition at the molecular level (free proteins)
# Settings: Tag1-PD-L1 and Tag2-PD-1 proteins, twelve concentrations from 200 nM, 2 hours at room temperature, read-out: FRET assay (IC50)
# Method in brief: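 HTRF read-out at 665/620 nm after 2 h at room temperature. Detection used anti-Tag1 Eu cryptate plus anti-Tag2 XL665 antibodies. Tagged PD-L1 and PD-1 proteins were pre-mixed with compound across twelve […] 1:2 dilutions starting at 200 nM.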
# Chain of PD-1/PD-L1 (Q9NZQ7 19-238 limits assumed): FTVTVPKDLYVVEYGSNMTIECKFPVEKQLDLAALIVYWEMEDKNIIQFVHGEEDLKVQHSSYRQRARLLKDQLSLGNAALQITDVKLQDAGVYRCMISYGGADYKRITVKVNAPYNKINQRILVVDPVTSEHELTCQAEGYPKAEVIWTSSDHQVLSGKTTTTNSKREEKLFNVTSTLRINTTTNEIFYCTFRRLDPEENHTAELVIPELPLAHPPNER
row,Compound,pIC50
1,"Cc1c(NC(=O)c2ccc(CN3CC[C@@H](O)C3)cn2)cccc1-c1cccc(NC(=O)c2cc3n(n2)CCCC3N2CC[C@@H](O)C2)c1C (stereo partly drawn) [Compound 92, 4-((R)-3-hydroxypyrrolidin-1-yl)-N-(3'-(5-(((R)-3-hydroxypyrrolidin-1-yl)methyl)picolinamido)-2,2'-dimethyl-[1,1'-biphenyl]-3-yl)-4,5,6,7-tetrahydropyrazolo[1,5-a]pyridine-2-carboxamide]",> 8.00
2,"Cc1c(NC(=O)c2ccc(CN3CC[C@@H](O)C3)cn2)cccc1-c1cccc(NC(=O)c2cc3n(n2)CCCC3NC[C@@H]2CCC(=O)N2)c1C (stereo partly drawn) [Compound 93, N-(3'-(5-(((R)-3-hydroxypyrrolidin-1-yl)methyl)picolinamido)-2,2'-dimethyl-[1,1'-biphenyl]-3-yl)-4-((((S)-5-oxopyrrolidin-2-yl)methyl)amino)-4,5,6,7-tetrahydropyrazolo[1,5-a]pyridine-2-carboxamide]",> 8.00
3,"CC(=O)NCCNC1CCCn2nc(C(=O)Nc3cccc(-c4cccc(NC(=O)c5ccc(CN6CC[C@@H](O)C6)cn5)c4C)c3C)cc21 (stereo partly drawn) [Compound 94, 4-((2-acetamidoethyl)amino)-N-(3'-(5-(((R)-3-hydroxypyrrolidin-1-yl)methyl)picolinamido)-2,2'-dimethyl-[1,1'-biphenyl]-3-yl)-4,5,6,7-tetrahydropyrazolo[1,5-a]pyridine-2-carboxamide]",> 8.00
4,"Cc1c(NC(=O)c2ccc(CN3CC[C@@H](O)C3)cn2)cccc1-c1cccc(NC(=O)c2cc3n(n2)CCCC3NCC(=O)O)c1C (stereo partly drawn) [Compound 95, 2-((2-((3'-(5-(((R)-3-hydroxypyrrolidin-1-yl)methyl)picolinamido)-2,2'-dimethyl-[1,1'-biphenyl]-3-yl)carbamoyl)-4,5,6,7-tetrahydropyrazolo[1,5-a]pyridin-4-yl)amino)acetic acid]",> 8.00
5,"Cc1c(NC(=O)c2ccc(CN3CC[C@@H](O)C3)cn2)cccc1-c1cccc(NC(=O)c2cc3n(n2)CCCC3N2CC[C@@H](C(=O)O)C2)c1C (stereo partly drawn) [Compound 96, (3R)-1-(2-((3'-(5-(((R)-3-hydroxypyrrolidin-1-yl)methyl)picolinamido)-2,2'-dimethyl-[1,1'-biphenyl]-3-yl)carbamoyl)-4,5,6,7-tetrahydropyrazolo[1,5-a]pyridin-4-yl)pyrrolidine-3-carboxylic acid]",> 8.00
6,"O=C(Nc1cccc(-c2cccc(Nc3nccc4cc(CN5CC[C@H](O)C5)cnc34)c2Cl)c1Cl)c1cc2n(n1)CCCC2N1CCC(O)CC1 (stereo partly drawn) [Compound 97, N-(2,2'-dichloro-3'-((3-(((S)-3-hydroxypyrrolidin-1-yl)methyl)-1,7-naphthyridin-8-yl)amino)-[1,1'-biphenyl]-3-yl)-4-(4-hydroxypiperidin-1-yl)-4,5,6,7-tetrahydropyrazolo[1,5-a]pyridine-2-carboxamide]",> 8.00
7,"Cc1c(NC(=O)c2ccc(CN3CC[C@@H](O)C3)cn2)cccc1-c1cccc(NC(=O)c2cc3n(n2)CCCC3N2CCC(C(=O)O)CC2)c1C (stereo partly drawn) [Compound 98, 1-(2-((3'-(5-(((R)-3-hydroxypyrrolidin-1-yl)methyl)picolinamido)-2,2'-dimethyl-[1,1'-biphenyl]-3-yl)carbamoyl)-4,5,6,7-tetrahydropyrazolo[1,5-a]pyridin-4-yl)piperidine-4-carboxylic acid]",> 8.00
8,"Cc1c(NC(=O)c2ccc(CN3CC[C@@H](O)C3)cn2)cccc1-c1cccc(NC(=O)c2cc3n(n2)CCCC3NC(C)(C)C(=O)O)c1C (stereo partly drawn) [Compound 99, 2-((2-((3'-(5-(((R)-3-hydroxypyrrolidin-1-yl)methyl)picolinamido)-2,2'-dimethyl-[1,1'-biphenyl]-3-yl)carbamoyl)-4,5,6,7-tetrahydropyrazolo[1,5-a]pyridin-4-yl)amino)-2-methylpropanoic acid]",> 8.00
9,"O=C(Nc1cccc(-c2cccc(NC(=O)c3cc4n(n3)CCCC4NCCO)c2Cl)c1Cl)c1ccc(CN2CC[C@@H](O)C2)cn1 (stereo partly drawn) [Compound 100, N-(2,2'-dichloro-3'-(5-(((R)-3-hydroxypyrrolidin-1-yl)methyl)picolinamido)-[1,1'-biphenyl]-3-yl)-4-((2-hydroxyethyl)amino)-4,5,6,7-tetrahydropyrazolo[1,5-a]pyridine-2-carboxamide]",> 8.00
10,"O=C(Nc1cccc(-c2cccc(NC(=O)c3cc4n(n3)CCCC4N3CC[C@@H](O)C3)c2Cl)c1Cl)c1ccc(CN2CC[C@@H](O)C2)cn1 (stereo partly drawn) [Compound 101, N-(2,2'-dichloro-3'-(5-(((R)-3-hydroxypyrrolidin-1-yl)methyl)picolinamido)-[1,1'-biphenyl]-3-yl)-4-((R)-3-hydroxypyrrolidin-1-yl)-4,5,6,7-tetrahydropyrazolo[1,5-a]pyridine-2-carboxamide]",7.00 to 8.00
11,"CC(=O)NCCNC1CCCn2nc(C(=O)Nc3cccc(-c4cccc(NC(=O)c5ccc(CN6CC[C@@H](O)C6)cn5)c4Cl)c3Cl)cc21 (stereo partly drawn) [Compound 103, 4-((2-acetamidoethyl)amino)-N-(2,2'-dichloro-3'-(5-(((R)-3-hydroxypyrrolidin-1-yl)methyl)picolinamido)-[1,1'-biphenyl]-3-yl)-4,5,6,7-tetrahydropyrazolo[1,5-a]pyridine-2-carboxamide]",> 8.00
12,"O=C(O)CNC1CCCn2nc(C(=O)Nc3cccc(-c4cccc(NC(=O)c5ccc(CN6CC[C@@H](O)C6)cn5)c4Cl)c3Cl)cc21 (stereo partly drawn) [Compound 104, 2-((2-((2,2'-dichloro-3'-(5-(((R)-3-hydroxypyrrolidin-1-yl)methyl)picolinamido)-[1,1'-biphenyl]-3-yl)carbamoyl)-4,5,6,7-tetrahydropyrazolo[1,5-a]pyridin-4-yl)amino)acetic acid]",> 8.00
13,"O=C(Nc1cccc(-c2cccc(NC(=O)c3cc4n(n3)CCCC4N3CC[C@@H](C(=O)O)C3)c2Cl)c1Cl)c1ccc(CN2CC[C@@H](O)C2)cn1 (stereo partly drawn) [Compound 105, (3R)-1-(2-((2,2'-dichloro-3'-(5-(((R)-3-hydroxypyrrolidin-1-yl)methyl)picolinamido)-[1,1'-biphenyl]-3-yl)carbamoyl)-4,5,6,7-tetrahydropyrazolo[1,5-a]pyridin-4-yl)pyrrolidine-3-carboxylic acid]",> 8.00
14,"O=C(Nc1cccc(-c2cccc(NC(=O)c3cc4n(n3)CCCC4N3CCC(O)CC3)c2Cl)c1Cl)c1ccc(CN2CC[C@@H](O)C2)cn1 (stereo partly drawn) [Compound 106, N-(2,2'-dichloro-3'-(5-(((R)-3-hydroxypyrrolidin-1-yl)methyl)picolinamido)-[1,1'-biphenyl]-3-yl)-4-(4-hydroxypiperidin-1-yl)-4,5,6,7-tetrahydropyrazolo[1,5-a]pyridine-2-carboxamide]",> 8.00
15,"O=C(Nc1cccc(-c2cccc(NC(=O)c3cc4n(n3)CCCC4N3CCC(C(=O)O)CC3)c2Cl)c1Cl)c1ccc(CN2CC[C@@H](O)C2)cn1 (stereo partly drawn) [Compound 107, 1-(2-((2,2'-dichloro-3'-(5-(((R)-3-hydroxypyrrolidin-1-yl)methyl)picolinamido)-[1,1'-biphenyl]-3-yl)carbamoyl)-4,5,6,7-tetrahydropyrazolo[1,5-a]pyridin-4-yl)piperidine-4-carboxylic acid]",7.00 to 8.00
16,"CC(C)(NC1CCCn2nc(C(=O)Nc3cccc(-c4cccc(NC(=O)c5ccc(CN6CC[C@@H](O)C6)cn5)c4Cl)c3Cl)cc21)C(=O)O (stereo partly drawn) [Compound 108, 2-((2-((2,2'-dichloro-3'-(5-(((R)-3-hydroxypyrrolidin-1-yl)methyl)picolinamido)-[1,1'-biphenyl]-3-yl)carbamoyl)-4,5,6,7-tetrahydropyrazolo[1,5-a]pyridin-4-yl)amino)-2-methylpropanoic acid]",> 8.00
